Experimental data published in patent US12312329B2, “Aminopyrimidine compound used for inhibiting activity of protein kinase” (Shenzhen TargetRx, Inc., priority 2018, dated 2025).
Where two headings read alike, the source gives them in different places.

Assays:
[1] = system: lung cancer cell NCI-H1975 (L858R/T790M); experiment: Cytotoxicity assay (MTS cell viability), NCI-H1975; assay type: cell-based; settings: Homo sapiens, 72 hours
Procedure: (§1) In vitro anti-proliferation activity of the compound of the present disclosure on three tumor cell lines cultured in vitro was detected by the MTS method.
(§2) Cell lines: skin cancer cell A431 (purchased from the American Type Culture Collection (ATCC)); lung cancer cell NCI-H1975 (purchased from the American Type Culture Collection (ATCC)) and HCC827 (purchased from the American Type Culture Collection (ATCC)); all were cultured with RPM11640 medium containing 10% fetal bovine serum, 100 U/ml penicillin, and […] streptomycin.
(§3) Reagents and materials: RPMI-1640 (GIBCO, Cat. No A10491-01); fetal bovine serum (GIBCO, Cat. No 10099141): 0.25% trypsin-EDTA (GIBCO, Cat. No 25200); penicillin-streptomycin; liquid (GIBCO, Cat. No 15140-122); DMSO (Sigma, Cat. No D2650); MTS Assay Kit (Promega, Cat. No G3581), 96-well plate (Corning, Cat. No 3365).
(§4) Formulation of compound: The test compound was dissolved in DMSO to prepare a 20 mM stock solution, which was stored at −20° C. The stock solution was then serially diluted 3-fold in DMSO to obtain ten concentrations. After the compound was added, a 4-fold dilution was performed with cell culture medium.
(§5) MTS cell viability assay: cells in logarithmic growth phase was digested with 0.25% trypsin-EDTA, and 150 μl of the cells was inoculated in a 96-well plate at an optimized density. After 24 hours, the compound diluted 4 fold in the medium was added, 50 μl/well (generally ten concentrations were selected: 100, 33.3, 11.1, 3.70, 1.23, 0.412, 0.137, 0.0457, 0.0152, 0.00508 μM). The same volume of 0.5% DMSO was added in wells as a control. After the cells were cultured for another 72 hours, the cell viability was detected by MTS.
(§6) Specific procedure: The cells were adhered. The medium was discarded. A mixture containing 20 μL MTS and 100 μl medium was added to each well. After incubating for 1-4 hours in an incubator, OD490 was detected, with the OD650 value as a reference. A dose-effect curve was made using GraphPad Prism software and IC50 was calculated.

[2] = system: lung cancer cell HCC827 (Del19); experiment: Cytotoxicity assay (MTS cell viability), HCC827; assay type: cell-based; settings: Homo sapiens, 72 hours
Procedure: as §1, §2, §3, §4, §5, §6

skin cancer cell A431 = experiment: Cytotoxicity assay (MTS cell viability), A431; assay type: cell-based; settings: Homo sapiens, A-431, 72 hours
Procedure: as §1, §2, §3, §4, §5, §6

[3] = Pharmacokinetic assay in rats; assay type: in vivo, Sprague-Dawley rats; settings: rat; for AUC(0-t) / Cmax / Tmax / half-life / AUC(0-inf) / MRT inf / bioavailability: male, Sprague-Dawley, plasma; for AUC(0-inf): read-out: AUCINF_pred; for MRT inf: read-out: MRTINF_pred; for bioavailability: PO 10 mg/kg vs IV 0.5 mg/kg
Procedure: Six male Sprague-Dawley rats (7-8 weeks old, and weighing about 210 g) were divided into 2 groups, 3 rats in each group. A single dose of compounds (10 mg/kg orally) was administered intravenously or orally to compare their pharmacokinetics.
The rats were fed with standard feed and water. Fasting was started 16 hours before the assay. The drug was dissolved in PEG400 and dimethyl sulfoxide. Blood was collected from the orbit. The time points for blood collection were 0.083 hours, 0.25 hours, 0.5 hours, 1 hour, 2 hours, 4 hours, 6 hours, 8 hours, 12 hours and 24 hours after administration.
The rats were briefly anesthetized after inhaling diethyl ether, and 300 μL of blood sample was collected from the orbit into a test tube containing 30 μL of 1% heparin salt solution. Before use, the test tube was oven dried overnight at 60° C. After the blood sample was collected at the last time point, the rats were anesthetized with diethyl ether and then sacrificed.
Immediately after the blood sample was collected, the test tube was gently inverted at least 5 times to ensure sufficient mixing, and then placed on ice. The blood sample was centrifuged at 5000 rpm at 4° C. for 5 minutes to separate the plasma from the red blood cells. 100 μL of plasma was aspirated into a clean plastic centrifuge tube with a pipette, and the name of the compound and time point were marked. The plasma was stored at −80° C. before analysis. The concentration of the compound of the present disclosure in plasma was determined by LC-MS/MS. The pharmacokinetic parameters were calculated based on the blood drug concentration of each animal at different time points.

WT EGFR = WT EGFR (Homo sapiens (Human), UniProt P00533); experiment: Kinase inhibition assay (HTRF Kinase TK), WT EGFR; assay type: biochemical
WT EGFR, sequence (P00533 25-1210): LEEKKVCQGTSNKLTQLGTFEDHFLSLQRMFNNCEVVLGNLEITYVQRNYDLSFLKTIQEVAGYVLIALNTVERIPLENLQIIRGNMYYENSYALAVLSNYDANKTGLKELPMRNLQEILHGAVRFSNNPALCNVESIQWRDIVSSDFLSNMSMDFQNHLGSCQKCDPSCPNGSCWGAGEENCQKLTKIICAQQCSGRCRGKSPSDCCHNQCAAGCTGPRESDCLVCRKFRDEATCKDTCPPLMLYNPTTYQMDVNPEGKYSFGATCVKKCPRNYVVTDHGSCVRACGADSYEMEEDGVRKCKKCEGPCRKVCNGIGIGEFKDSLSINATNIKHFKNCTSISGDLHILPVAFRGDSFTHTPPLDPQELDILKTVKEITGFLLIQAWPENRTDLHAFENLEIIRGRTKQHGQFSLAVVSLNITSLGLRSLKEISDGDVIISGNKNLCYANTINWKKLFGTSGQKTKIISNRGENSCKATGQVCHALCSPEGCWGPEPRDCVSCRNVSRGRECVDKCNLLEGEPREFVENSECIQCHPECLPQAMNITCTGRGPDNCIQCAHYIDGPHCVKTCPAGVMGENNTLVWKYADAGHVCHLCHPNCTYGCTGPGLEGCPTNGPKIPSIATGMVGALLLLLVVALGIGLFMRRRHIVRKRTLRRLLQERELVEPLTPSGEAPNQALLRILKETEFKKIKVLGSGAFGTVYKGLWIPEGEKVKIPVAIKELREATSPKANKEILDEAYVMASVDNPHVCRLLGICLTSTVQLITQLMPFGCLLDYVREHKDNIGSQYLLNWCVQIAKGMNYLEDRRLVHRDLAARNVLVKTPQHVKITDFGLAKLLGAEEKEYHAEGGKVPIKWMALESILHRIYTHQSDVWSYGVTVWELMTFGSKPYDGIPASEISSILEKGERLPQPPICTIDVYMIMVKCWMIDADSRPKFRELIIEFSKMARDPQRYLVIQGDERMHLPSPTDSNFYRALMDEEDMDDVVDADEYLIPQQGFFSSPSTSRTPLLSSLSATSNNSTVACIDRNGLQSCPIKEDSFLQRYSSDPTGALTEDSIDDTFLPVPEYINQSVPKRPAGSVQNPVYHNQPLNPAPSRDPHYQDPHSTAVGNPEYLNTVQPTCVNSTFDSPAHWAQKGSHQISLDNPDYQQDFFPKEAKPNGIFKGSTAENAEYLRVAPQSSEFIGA
Source text: (§7) WT EGFR (Carna, Cat. No 08-115), EGFR[L858R] (Carna, Cat. No 08-502), EGFR[L858R/T790M] (Carna, Cat. No 08-510), ATP (Sigma, Cat. No A7699-1G), DMSO (Sigma, Cat. No D2650), 96-well plate (Corning, Cat. No 3365), 384-well plate (Greiner, Cat. No 784076). HTRF Kinase TK Kit (Cisbio. Cat. No 62TK0PEJ), erlotinib (Selleckchem, Cat. No S7787), EGFR[d746-750] (Life Technologies, Cat. No PV6178), 5× kinase buffer A (Life Technologies, Cat. No PV3186), kinase tracer 199 (Life Technologies, Cat. No PV5830), LanthaScreen® Eu-anti-GST antibody (Life Technologies, Cat. No PV5594).
(§8) Formulation of compound: The test compound was dissolved in DMSO to prepare a 20 mM stock solution. The stock solution was then serially diluted 3-fold in DMSO to obtain ten concentrations. After the compound was added, a 10-fold dilution was performed with buffer.
(§9) WT EGFR and EGFR[L858R/T790M] kinase detection: In 5× kinase buffer A, WT EGFR or EGFR[L858R/T790M] kinase was mixed with different concentrations of compounds prepared by pre-dilution for 10 minutes. Each concentration was tested in duplicate. The corresponding substrate and ATP were added, and reaction was performed at room temperature for 20 minutes (negative and positive controls were provided: the negative control was a blank control, and the positive control was erlotinib). After completion of the reaction, detection reagents (reagents in the HTRF Kinase TK kit) were added. After incubating for 30 minutes at room temperature, enzyme activity in the presence of various concentrations of the compounds of the present disclosure was determined by Evnvision microplate reader, and inhibitory activity of different concentrations of the compounds on enzyme activity was calculated. The inhibitory activity of different concentrations of the compounds on enzyme activity was then fitted by Graphpad 5.0 software according to the four-parameter equation, and the IC50 value was calculated.

EGFR[L858R/T790M] = EGFR[L858R/T790M] (Homo sapiens (Human), UniProt P00533, L858R/T790M); experiment: Kinase inhibition assay (HTRF Kinase TK), EGFR[L858R/T790M]; assay type: biochemical
EGFR[L858R/T790M], sequence (P00533 25-1210 T790M/L858R): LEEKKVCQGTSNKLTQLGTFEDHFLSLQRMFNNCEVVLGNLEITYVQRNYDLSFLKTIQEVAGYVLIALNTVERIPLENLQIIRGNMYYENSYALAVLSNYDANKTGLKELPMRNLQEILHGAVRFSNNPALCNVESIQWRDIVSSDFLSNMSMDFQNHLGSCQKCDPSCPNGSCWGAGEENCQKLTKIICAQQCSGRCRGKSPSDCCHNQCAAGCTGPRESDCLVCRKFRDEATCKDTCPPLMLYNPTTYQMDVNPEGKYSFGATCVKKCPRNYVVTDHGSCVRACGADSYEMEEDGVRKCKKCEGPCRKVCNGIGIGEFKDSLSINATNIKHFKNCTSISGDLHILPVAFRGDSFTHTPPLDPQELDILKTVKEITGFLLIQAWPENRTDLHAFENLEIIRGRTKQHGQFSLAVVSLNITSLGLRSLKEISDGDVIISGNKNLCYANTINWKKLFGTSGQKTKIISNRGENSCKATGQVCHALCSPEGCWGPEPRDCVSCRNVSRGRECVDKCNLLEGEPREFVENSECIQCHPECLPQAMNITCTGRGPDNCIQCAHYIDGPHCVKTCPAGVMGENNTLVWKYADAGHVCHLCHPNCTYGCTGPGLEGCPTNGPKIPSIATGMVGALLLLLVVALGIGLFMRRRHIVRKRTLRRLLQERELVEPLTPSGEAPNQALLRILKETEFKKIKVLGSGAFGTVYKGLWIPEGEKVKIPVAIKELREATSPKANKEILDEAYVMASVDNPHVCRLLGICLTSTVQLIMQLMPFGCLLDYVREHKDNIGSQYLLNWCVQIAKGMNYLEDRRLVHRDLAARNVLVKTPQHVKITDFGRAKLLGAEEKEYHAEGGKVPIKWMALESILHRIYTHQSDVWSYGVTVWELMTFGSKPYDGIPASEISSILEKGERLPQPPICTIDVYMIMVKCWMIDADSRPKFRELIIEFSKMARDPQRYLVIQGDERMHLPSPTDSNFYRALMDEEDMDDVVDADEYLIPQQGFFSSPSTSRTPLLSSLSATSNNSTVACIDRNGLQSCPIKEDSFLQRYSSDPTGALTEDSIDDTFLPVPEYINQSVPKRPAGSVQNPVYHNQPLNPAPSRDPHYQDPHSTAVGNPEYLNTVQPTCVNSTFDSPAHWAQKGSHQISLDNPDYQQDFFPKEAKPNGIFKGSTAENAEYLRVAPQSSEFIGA
Source text: as §7, §8, §9

AUC(0-t) ([3]; IV 0.5 mg/kg) [ng·h/mL] | Cmax ([3]; IV 0.5 mg/kg) [ng/mL] | Tmax ([3]; IV 0.5 mg/kg) [h] | half-life ([3]; IV 0.5 mg/kg) [h] | AUC(0-inf) ([3]; IV 0.5 mg/kg) [ng·h/mL] | MRT inf ([3]; IV 0.5 mg/kg) [h] | AUC(0-t) ([3]; PO 10 mg/kg) [ng·h/mL] | Cmax ([3]; PO 10 mg/kg) [ng/mL] | Tmax ([3]; PO 10 mg/kg) [h] | half-life ([3]; PO 10 mg/kg) [h] | bioavailability [3] [%] | Cl_pred ([3]; IV 0.5 mg/kg) [mL/min/kg] | Vz_pred ([3]; IV 0.5 mg/kg) [L/kg] | Cl_pred ([3]; PO 10 mg/kg) [mL/min/kg] | Vz_pred ([3]; PO 10 mg/kg) [L/kg] | IC50 (WT EGFR) [nM] | IC50 (EGFR[L858R/T790M]) [nM] | Structure (SMILES) | IC50 [1] [nM] | IC50 [2] [nM] | IC50 (skin cancer cell A431) [nM] | other results
328 | 246 | 0.08 | 2.8 | 341 | 2.32 | 1430 | 91.1 | 5.33 | 8.69 | 21.8 | 24.5 | 5.94 | 97.5 | 73.39 | 1.29 | 0.4 | C=CC(=O)Nc1cc(Nc2nccc(-n3cc(CN(C)C)c(-c4ccccc4)n3)n2)c(OC)nc1N1CCOCC1 [Compound T-1, N-(5-((4-(4-((dimethylamino)methyl)-3-phenyl-1H-pyrazol-1-yl)pyrimidin-2-yl)amino)-6-methoxy-2-morpholinopyridin-3-yl)acrylamide] | 2.43 | 3.64 | 260 | AUC(0-inf) ([3]; PO 10 mg/kg): 1790 ng·h/mL; MRT inf ([3]; PO 10 mg/kg): 9.11 h
 |  |  |  |  |  |  |  |  |  |  |  |  |  |  | 1.98 | 0.81 | C=CC(=O)Nc1cc(Nc2nccc(-n3cc(CN(C)C)c(-c4ccccc4)n3)n2)c(OC(C)C)nc1N1CCOCC1 [Compound T-4, N-(5-((4-(4-((dimethylamino)methyl)-3-phenyl-1H-pyrazol-1-yl)-pyrimidin-2-yl)amino)-6-isopropoxy-2-morpholinopyridin-3-yl)acrylamide] | 13.2 | 5.06 | 130 | 
 |  |  |  |  |  |  |  |  |  |  |  |  |  |  | 0.55 | 1.15 | C=CC(=O)Nc1cc(Nc2nccc(-c3cc(CN(C)C)n(-c4ccccc4)n3)n2)c(OC)cc1N1CCOCC1 [Compound T-7, N-(5-((4-(5-((dimethylamino)methyl)-1-phenyl-1H-pyrazol-3-yl)pyrimidin-2-yl)amino)-4-methoxy-2-morpholinophenyl)acrylamide] | 23.5 | 4.44 | 226 | 
 |  |  |  |  |  |  |  |  |  |  | 17.5 | 5.73 | 94.2 | 61.56 |  |  | C=CC(=O)Nc1cc(Nc2nccc(-n3cc(CN(C)C)c(-c4ccccc4)n3)n2)c(OC)cc1N1CCOCC1 [YH25448, reference compound] |  |  |  | 

Continued, compound first:

Structure (SMILES) | AUC(0-t) ([3]; IV 0.5 mg/kg) [ng·h/mL] | Cmax ([3]; IV 0.5 mg/kg) [ng/mL] | Tmax ([3]; IV 0.5 mg/kg) [h] | half-life ([3]; IV 0.5 mg/kg) [h] | AUC(0-inf) ([3]; IV 0.5 mg/kg) [ng·h/mL] | MRT inf ([3]; IV 0.5 mg/kg) [h] | AUC(0-t) ([3]; PO 10 mg/kg) [ng·h/mL] | Cmax ([3]; PO 10 mg/kg) [ng/mL] | Tmax ([3]; PO 10 mg/kg) [h] | half-life ([3]; PO 10 mg/kg) [h] | bioavailability [3] [%] | Cl_pred ([3]; IV 0.5 mg/kg) [mL/min/kg] | Vz_pred ([3]; IV 0.5 mg/kg) [L/kg] | Cl_pred ([3]; PO 10 mg/kg) [mL/min/kg] | Vz_pred ([3]; PO 10 mg/kg) [L/kg] | IC50 (WT EGFR) [nM] | IC50 (EGFR[L858R/T790M]) [nM] | IC50 [1] [nM] | IC50 [2] [nM] | IC50 (skin cancer cell A431) [nM] | other results
C=CC(=O)Nc1cc(Nc2ncc(F)c(-n3cc(CN(C)C)c(-c4ccccc4)n3)n2)c(OC)nc1N1CCOCC1 [Compound T-2, N-(5-((4-(4-((dimethylamino)methyl)-3-phenyl-1H-pyrazol-1-yl)-5-fluoropyrimidin-2-yl)amino)-6-methoxy-2-morpholinopyridin-3-yl) acrylamide] | 284 | 268 | 0.08 | 2.17 | 289 | 1.95 | 753 | 69.3 | 2.33 | 6.4 | 25.1 | 29.2 | 5.49 | 200.8 | 111.2 | 3.33 | 0.44 | 9.51 | 8.25 | 1410 | AUC(0-inf) ([3]; PO 10 mg/kg): 840 ng·h/mL; MRT inf ([3]; PO 10 mg/kg): 7.67 h
C=CC(=O)Nc1cc(Nc2ncc(C)c(-n3cc(CN(C)C)c(-c4ccccc4)n3)n2)c(OC)nc1N1CCOCC1 [Compound T-3, N-(5-((4-(4-((dimethylamino)methyl)-3-phenyl-H-pyrazol-1-yl)-5-methylpyrimidin-2-yl)amino)-6-methoxy-2-morpholinopyridin-3-yl)acrylamide] |  |  |  |  |  |  |  |  |  |  |  |  |  |  |  | 6.29 | 0.6 | 21.9 | 12.1 | 342 | 
